Laboratory results taken from publication PMC9535023, “Inhibition of phospholipase D1 induces immunogenic cell death and potentiates cancer immunotherapy in colorectal cancer” (Experimental & Molecular Medicine, 2022).

Legend:
[1] = molecular target: T1, PLD1 (Mus musculus, UniProt Q9Z280); assay: PLD1 activity in Pld2−/− MEFs; format: cell-based
T1 construct: endogenous in cells; host or cells: immortalized Pld2-/- mouse embryonic fibroblasts
T1 sequence (Q9Z280 1-1074): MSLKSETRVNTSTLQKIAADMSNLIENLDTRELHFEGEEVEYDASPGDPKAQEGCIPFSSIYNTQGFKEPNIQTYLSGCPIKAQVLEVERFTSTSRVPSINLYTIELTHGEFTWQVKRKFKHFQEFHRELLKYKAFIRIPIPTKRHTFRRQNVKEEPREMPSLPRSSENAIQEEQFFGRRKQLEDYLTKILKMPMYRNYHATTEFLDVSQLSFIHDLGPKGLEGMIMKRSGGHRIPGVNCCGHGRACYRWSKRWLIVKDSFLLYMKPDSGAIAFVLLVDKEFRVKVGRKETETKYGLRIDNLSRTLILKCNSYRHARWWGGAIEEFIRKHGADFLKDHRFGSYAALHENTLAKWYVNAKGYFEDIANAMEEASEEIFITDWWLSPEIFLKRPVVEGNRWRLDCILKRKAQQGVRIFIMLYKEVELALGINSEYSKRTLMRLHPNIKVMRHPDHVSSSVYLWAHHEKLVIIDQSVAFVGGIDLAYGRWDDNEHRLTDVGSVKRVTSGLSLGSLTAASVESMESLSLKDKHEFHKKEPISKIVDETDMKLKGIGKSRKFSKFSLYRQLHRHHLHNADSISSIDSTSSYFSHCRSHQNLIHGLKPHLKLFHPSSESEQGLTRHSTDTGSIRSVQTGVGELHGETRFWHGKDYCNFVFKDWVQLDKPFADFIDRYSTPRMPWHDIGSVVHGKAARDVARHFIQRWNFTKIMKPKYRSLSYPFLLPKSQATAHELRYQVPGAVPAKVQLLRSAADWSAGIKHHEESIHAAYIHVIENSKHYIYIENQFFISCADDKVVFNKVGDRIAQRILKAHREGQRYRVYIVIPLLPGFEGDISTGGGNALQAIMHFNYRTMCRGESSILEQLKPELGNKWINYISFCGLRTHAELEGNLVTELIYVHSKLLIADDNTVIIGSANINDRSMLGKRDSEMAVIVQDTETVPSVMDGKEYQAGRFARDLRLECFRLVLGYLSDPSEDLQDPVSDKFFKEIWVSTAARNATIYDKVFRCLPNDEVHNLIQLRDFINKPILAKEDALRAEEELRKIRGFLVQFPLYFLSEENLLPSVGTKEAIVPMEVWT
Procedure: (§1) Cells were labeled with [H^3] myristic acid, and PLD activity was assessed by measuring the formation of [H^3] phosphatidylbutanol, which is the product of PLD-mediated transphosphatidylation, in the presence of 1-butanol, as previously described.
(§2) We further investigated the effect of A3373 on the enzymatic inhibition of PLD1 and PLD2 in Pld^+/+, Pld1^−/−, and Pld2^−/− MEFs. […] Kinase profiling was used to evaluate the general selectivity of the lead compounds. […] To further investigate whether inhibition of PLD1 by A3373 occurs by binding to PLD1, we first modified A3373 by adding biotinylation instead of the F present in its structure and measured PLD activity.

[2] = molecular target: T2, PLD2 (Mus musculus, UniProt P97813); assay: PLD2 activity in Pld1−/− MEFs; format: cell-based
T2 construct: endogenous in cells; host or cells: immortalized Pld1-/- mouse embryonic fibroblasts
Procedure: as §1, §2

[3] = tested on: 21 purified protein kinases; assay: Kinase panel assay (KinaseProfiler); format: biochemical; settings: 1 µM A3373
Procedure: (§3) Supplementary materials and methods […]
In vitro kinase activity assays of A3373 were perfo rmed using the 21 kinase KinaseProfilerTM
(eurofins). Kinase activity was determined aft er in cubation with 1 µM A3373, acco rding to the
KinaseProfilerTM Service standard assay protocol s. […]

[4] = tested on: HCT116 cells; assay: Flow cytometry of do not eat-me signals and calreticulin; format: cell-based
[5] = tested on: DLD1 cells; assay: In vitro phagocytosis assay, DLD1 cells with THP1 macrophages; format: cell-based; settings: CFSE-labeled CRC cells cocultured with PMA-activated THP1 macrophages, vs vehicle
[6] = tested on: HEK293 cells; assay: TCF transactivation in HEK293 cells; format: cell-based; settings: Wnt3a 150 ng/mL
[7] = tested on: AOM/DSS-induced mouse colon cancer; assay: AOM/DSS-induced colitis-associated CRC model; format: in vivo; settings: AOM/DSS mice, 10 mg/kg
Procedure: as §3
The AOM/DSS colorect al cancer model was est ablished using 6 -weeks-old C57BL/6 male mice (Koat ech). Mice were given a single intraperitoneal (IP) injection of the mutagen AOM (10 mg/kg), aft er whi ch t hey were given three periods drinking water contai ning 2.5% DSS for 5 days, followed by 15 days of normal water. AOM/DSS-induced mice were given either vehicle (PBS containing 8% DMSO and 1% Tween 80) or 10 mg/kg A3373 compound every day by oral administration for 45 days. […]

[8] = Single oral dose toxicity in mice; settings: female and male mice

T2 sequence (P97813 whole entry): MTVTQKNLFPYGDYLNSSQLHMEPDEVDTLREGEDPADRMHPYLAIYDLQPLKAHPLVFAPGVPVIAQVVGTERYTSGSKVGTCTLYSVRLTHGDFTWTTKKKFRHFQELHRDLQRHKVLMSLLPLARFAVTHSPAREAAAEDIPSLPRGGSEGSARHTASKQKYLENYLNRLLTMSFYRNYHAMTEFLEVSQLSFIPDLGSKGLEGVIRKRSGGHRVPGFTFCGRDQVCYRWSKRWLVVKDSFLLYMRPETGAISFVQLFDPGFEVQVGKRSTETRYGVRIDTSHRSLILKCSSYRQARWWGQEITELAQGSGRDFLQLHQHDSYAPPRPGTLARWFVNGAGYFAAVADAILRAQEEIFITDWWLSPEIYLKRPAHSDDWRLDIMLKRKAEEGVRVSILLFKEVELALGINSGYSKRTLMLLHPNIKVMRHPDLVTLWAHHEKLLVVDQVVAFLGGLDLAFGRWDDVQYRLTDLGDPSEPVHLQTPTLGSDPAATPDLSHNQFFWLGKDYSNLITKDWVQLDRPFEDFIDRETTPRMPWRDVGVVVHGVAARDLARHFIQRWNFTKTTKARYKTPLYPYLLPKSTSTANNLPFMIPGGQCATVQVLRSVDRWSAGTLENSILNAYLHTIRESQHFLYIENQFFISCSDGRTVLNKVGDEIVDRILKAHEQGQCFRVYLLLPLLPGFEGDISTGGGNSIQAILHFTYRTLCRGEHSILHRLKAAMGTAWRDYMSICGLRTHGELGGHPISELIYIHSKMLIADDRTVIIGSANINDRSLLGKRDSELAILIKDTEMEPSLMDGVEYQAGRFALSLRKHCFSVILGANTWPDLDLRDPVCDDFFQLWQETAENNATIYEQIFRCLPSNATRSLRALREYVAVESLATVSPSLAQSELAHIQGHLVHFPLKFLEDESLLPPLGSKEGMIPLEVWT

Structure (SMILES): O=C(Nc1cc(C(F)(F)F)cc(C(F)(F)F)c1)c1cc2cc(F)ccc2[nH]1 [Compound A3373]
- PLD1 activity, in words ([1]; 2 μM, Pld−/− MEFs): suppressed
- IC50 ([1]; Pld2−/− MEFs): 325 nM
- PLD2 activity, in words ([2]; 2 μM, Pld−/− MEFs): not PLD2 activity
- IC50 ([2]; Pld1−/− MEFs): 15.1 µM
- effect on activity of 21 purified protein kinases [3]: no effect
- cell-surface CRT expression, in words [4]: increased cell-surface CRT expression
- levels of do not eat-me signals, in words ([4]; CRC cells, flow cytometry): significantly reduced the levels of the “do not eat-me” signals
- population of CD11b+CFSE+ macrophages, in words [5]: significantly increased the population of CD11b^+CFSE^+ macrophages
- Wnt3a- and β-catenin-induced TCF transactivation [6]: significantly decreased Wnt3a- and β-catenin-induced TCF transactivation
- CD8 expression (IHC) [7]: increased the expression level of CD8
- active caspase-3, Ki67 and CD31 in tumor tissues (IHC) [7]: increased the level of active caspase-3 and decreased the levels of Ki67 and CD31
- do not eat-me and eat-me signals in tumor tissues (IHC) [7]: decreased the expression of “do not eat-me” signals but increased that of “eat-me” signals
- immune checkpoints (PD1, B7H4) and Foxp3 (IHC) [7]: reduced the expression of immune checkpoints (PD1 and B7H4) and Foxp3
- mortality [7]: significantly lower
- number of intestinal polyps [7]: significantly lower
- tumor formation [7]: attenuated the tumor formation
- β-catenin and downstream target proteins (IHC) [7]: suppressed the levels of β-catenin and its downstream target proteins
- approximate lethal dose [8]: over 2000 mg/kg
